# Data: the supplement of paper PMC10307832
# Tests used:
# Assay in all cases: relative viability (nuclei count vs DMSO), 5 days (fraction); higher = more cells survive
# [1] = compound: C#Cc1cccc(Nc2ncnc3cc(OCCOC)c(OCCOC)cc23)c1 [Erlotinib] + CC(=O)c1c(C)c2cnc(Nc3ccc(N4CCNCC4)cn3)nc2n(C2CCCC2)c1=O [Palbociclib] (partner 0.5 µM)
# Summary of the method: (§1)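 Relative viability was taken as the ratio of nuclei in treated wells to nuclei in vehicle wells. Lung cancer cell lines in 1536-well plates received compounds by pin tool one day after seeding, either one drug alone or a fixed anchor-drug dose plus five library-drug doses (not always all listed) in √10 steps. Nuclei were counted on 4× images after 5 days of treatment, and values are medians of duplicate plates.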
# [2] = compound: C#Cc1cccc(Nc2ncnc3cc(OCCOC)c(OCCOC)cc23)c1 [Erlotinib] + CCNC(=O)c1noc(-c2cc(C(C)C)c(O)cc2O)c1-c1ccc(CN2CCOCC2)cc1 [Luminespib] (partner 0.01 µM)
# Summary of the method: as §1
# [3] = compound: C#Cc1cccc(Nc2ncnc3cc(OCCOC)c(OCCOC)cc23)c1 [Erlotinib] + C[C@@H](Oc1cc(-c2cnn(C3CCNCC3)c2)cnc1N)c1c(Cl)ccc(F)c1Cl [Crizotinib] (partner 1 µM)
# Summary of the method: as §1
# [4] = compound: C#Cc1cccc(Nc2ncnc3cc(OCCOC)c(OCCOC)cc23)c1 [Erlotinib] + Cc1nc(Nc2ncc(C(=O)Nc3c(C)cccc3Cl)s2)cc(N2CCN(CCO)CC2)n1 [Dasatinib] (partner 0.075 µM)
# Summary of the method: as §1
# [5] = compound: O=C(Nc1c[nH]nc1-c1nc2ccc(CN3CCOCC3)cc2[nH]1)NC1CC1 [AT9283] + CC1(C)CCC(c2ccc(Cl)cc2)=C(CN2CCN(c3ccc(C(=O)NS(=O)(=O)c4ccc(N[C@H](CCN5CCOCC5)CSc5ccccc5)c(S(=O)(=O)C(F)(F)F)c4)cc3)CC2)C1 [Navitoclax] (partner 0.5 µM)
# Summary of the method: as §1
Cell Line,relative viability ([1]; first compound 0.02 µM),relative viability ([1]; first compound 0.2 µM),relative viability ([1]; first compound 0.6325 µM),relative viability ([1]; first compound 2 µM),relative viability ([2]; first compound 0.02 µM),relative viability ([2]; first compound 0.2 µM),relative viability ([2]; first compound 0.6325 µM),relative viability ([2]; first compound 2 µM),relative viability ([3]; first compound 0.02 µM),relative viability ([3]; first compound 0.2 µM),relative viability ([3]; first compound 0.6325 µM),relative viability ([3]; first compound 2 µM),relative viability ([4]; first compound 0.02 µM),relative viability ([4]; first compound 0.2 µM),relative viability ([4]; first compound 0.6325 µM),relative viability ([4]; first compound 2 µM),relative viability ([5]; first compound 0.003 µM),relative viability ([5]; first compound 0.03 µM),relative viability ([5]; first compound 0.09487 µM),relative viability ([5]; first compound 0.3 µM)
H3255,0.31,0.325,0.275,0.251,0.768,0.531,0.326,0.295,0.999,0.509,0.305,0.136,0.322,0.347,0.167,0.278,0.513,0.499,0.216,0.105
ABC-1,–,0.585,0.489,–,–,0.684,0.771,0.601,1.07,1.14,1.44,1.18,0.564,0.491,0.506,0.565,–,–,–,–
NCI-H1299,–,–,–,–,–,–,–,–,0.989,–,0.988,0.965,–,–,–,–,1.09,0.927,0.363,0.304
NCI-H1993,0.585,0.561,0.503,0.514,0.812,0.611,0.566,0.508,0.816,0.646,0.854,0.713,0.579,0.531,0.553,0.586,0.872,0.905,0.586,0.466
LOU-NH91,0.564,0.546,0.624,0.542,0.412,0.297,0.364,0.31,0.601,0.54,0.55,0.499,0.459,0.434,0.415,0.365,0.735,0.605,0.37,0.283
LC-2-ad,0.527,0.491,0.472,0.411,1.13,0.976,1.17,0.745,0.468,0.509,0.458,0.329,0.724,0.466,0.589,0.452,0.506,0.232,0.0899,0.101
HCC-15,0.727,0.672,0.751,0.71,0.241,0.376,0.236,0.208,0.784,0.833,0.936,0.7,0.66,0.612,0.605,0.533,0.685,0.515,0.246,0.148
NCI-H650,0.317,0.341,0.335,0.35,0.822,0.783,0.679,0.794,0.735,0.803,0.903,0.662,0.38,0.456,0.526,0.425,–,–,–,–
NCI-H2009,0.173,0.205,0.235,0.203,1.04,1.03,1.09,0.944,1.02,1.07,1.15,–,0.365,0.351,0.432,0.238,1.26,0.681,0.391,0.284
COR-L 105,0.402,0.322,0.359,0.328,0.779,0.472,0.378,0.216,–,0.656,0.39,0.198,0.302,0.173,0.182,0.122,0.83,0.27,0.293,0.281
NCI-H1975,0.539,0.611,0.639,0.472,0.222,0.157,0.169,0.306,0.947,0.96,1.04,0.694,0.391,0.407,0.372,0.205,1.11,1.18,0.971,0.282
NCI-H1734,0.346,0.342,0.372,0.41,0.202,0.212,0.194,0.197,0.644,0.653,0.753,0.654,0.574,0.482,0.473,0.428,0.839,0.318,0.131,0.127
NCI-H838,0.225,0.205,0.225,0.211,0.321,0.313,0.427,0.303,0.953,0.838,0.907,0.693,0.29,0.308,0.288,0.317,1.32,0.333,0.239,0.213
LCLC-103H,0.503,0.429,0.457,0.467,0.99,0.884,1.05,0.821,1.04,1.09,1.16,1.04,–,0.6,0.478,0.399,–,–,–,–
NCI-H2023,0.393,0.351,0.297,0.225,0.721,0.72,0.81,0.629,0.575,0.44,0.469,0.294,0.639,0.408,0.623,0.44,1.04,0.71,0.383,0.119
A-427,0.485,0.492,0.529,0.53,1.18,0.932,0.857,0.76,0.966,1.03,0.887,0.838,0.832,0.687,0.842,0.676,1.05,0.691,0.174,0.167
SK-MES-1,0.35,0.257,0.327,0.293,0.77,0.453,0.486,0.461,1.06,0.725,0.524,0.38,0.338,0.175,0.177,0.156,1.24,1.11,0.336,0.147
NCI-H522,0.908,0.969,0.883,0.824,1.16,0.954,1.15,0.965,–,–,–,–,0.812,0.784,1.06,0.85,–,–,–,–

Cell Line,relative viability ([1]; first compound 0.02 µM),relative viability ([1]; first compound 0.2 µM),relative viability ([1]; first compound 0.6325 µM),relative viability ([1]; first compound 2 µM),relative viability ([2]; first compound 0.02 µM),relative viability ([2]; first compound 0.2 µM),relative viability ([2]; first compound 0.6325 µM),relative viability ([2]; first compound 2 µM),relative viability ([3]; first compound 0.02 µM),relative viability ([3]; first compound 0.2 µM),relative viability ([3]; first compound 0.6325 µM),relative viability ([3]; first compound 2 µM),relative viability ([4]; first compound 0.02 µM),relative viability ([4]; first compound 0.2 µM),relative viability ([4]; first compound 0.6325 µM),relative viability ([4]; first compound 2 µM),relative viability ([5]; first compound 0.003 µM),relative viability ([5]; first compound 0.03 µM),relative viability ([5]; first compound 0.09487 µM),relative viability ([5]; first compound 0.3 µM)
HCC-78,0.482,0.432,0.458,0.459,–,–,–,–,0.266,0.254,0.271,0.217,0.319,0.36,0.364,0.225,0.721,0.511,0.169,0.145
NCI-H1648,0.337,0.277,0.293,0.272,–,–,–,–,–,–,–,–,–,–,–,–,–,–,–,–
NCI-H661,0.418,0.43,0.383,0.355,0.903,0.933,0.882,0.736,1.16,–,1.04,0.97,0.912,0.693,0.735,0.443,–,–,–,–
A549,–,–,–,–,–,–,–,–,0.799,0.796,0.792,0.551,–,–,–,–,1.14,0.0945,0.0413,0.0451
HCC-366,0.389,0.358,0.544,0.312,–,–,–,–,0.49,0.524,0.736,0.502,0.61,0.606,0.637,0.522,1.1,0.842,0.191,0.0248
NCI-H1395,0.619,0.532,0.657,0.571,0.919,0.613,0.676,0.671,–,–,–,–,0.405,0.442,0.411,0.408,1.21,0.716,0.393,0.421
NCI-H1563,–,–,–,–,0.527,0.495,0.512,0.477,0.85,0.845,0.802,0.804,0.38,0.522,0.427,0.382,–,–,–,–
NCI-H358,0.132,0.146,0.109,0.108,0.262,0.225,0.31,0.12,0.549,0.524,0.379,0.24,0.174,0.129,0.133,0.171,–,–,–,–
IA-LM,–,–,–,–,–,–,–,–,0.808,1,0.93,0.85,–,–,–,–,0.952,0.372,0.112,0.0779
EBC-1,–,–,–,–,–,–,–,–,0.206,0.189,0.169,0.164,–,–,–,–,0.461,0.203,0.145,0.17
NCI-H1703,–,–,–,–,–,–,–,–,0.592,–,–,0.569,–,–,–,–,1.36,0.19,0.216,0.176
NCI-H2342,0.469,0.439,0.457,0.591,0.731,0.609,0.573,0.739,–,–,–,–,0.289,0.323,0.304,0.26,–,–,–,–
NCI-H596,–,–,–,–,1.07,0.848,0.893,0.878,0.952,0.961,1.02,0.828,0.634,0.565,0.538,0.472,1.05,0.839,0.689,0.481
NCI-H1793,0.252,0.241,0.247,0.241,0.167,0.19,0.169,0.125,–,–,–,–,0.342,0.249,0.392,0.272,0.533,0.429,0.231,0.164
SW 900,0.492,0.48,0.472,0.398,0.201,0.172,0.178,0.173,–,–,–,–,0.655,0.506,0.517,0.374,–,–,–,–
HCC-44,0.991,1.03,0.982,–,0.912,1.02,1.62,1.03,0.797,0.895,0.843,0.798,–,–,–,–,0.897,0.787,0.823,0.257
Calu-6,–,–,–,–,–,–,–,–,0.931,0.719,0.853,0.714,–,–,–,–,0.794,0.113,0.134,0.102
